# Measured values published in patent US11213509B2, “Compositions and methods for treating traumatic brain injury” (Ischemix, LLC, priority 2017, dated 2022).
# How the values were obtained:
# protein carboxylation = test: Protein carboxylation by ELISA, focal TBI model in piglets; format: in vivo; conditions: cortical penumbra, ipsilateral; vs placebo, p<0.01
# Description: Study Design: A blinded, placebo controlled proof of concept trial of CMX-2043 was conducted in four-week-old piglets (8-10 kg). […] Sixteen piglets (n=16) were designated into three cohorts: 1) Controlled cortical impact (CCI) at the rostral gyrus treated with a bolus of CMX-2043 (n=5), 2) CCI injured animals treated with placebo (n=5) and 3) sham animals (n=6). CMX-2043 treated animals received an intravenous loading bolus of CMX-2043 (13.4 mg/kg) 1 hour post-TBI and a 4.5 mg/kg bolus at 13 hours post-TBI. Subjects were intubated, ventilated and anesthesia maintained on isoflurane (1.0%). Buprenorphine (0.02 mg/kg IM) was administered for analgesia immediately following intubation. Monitors recorded oxygen saturation, heart rate, respiration rate, rectal temperature, and end tidal CO2. […] All piglets were sacrificed between 24-25 hours post-TBI.
# Samples from the same ipsilateral region that were analyzed for mtROS were analyzed for oxidative damage by measuring protein carboxylation (VWR Int'l), and compared to placebo and shams.
# [1] = Body weight change, fluid percussion model of diffused TBI; format: in vivo, rat; conditions: 7.5, 15, 30, 45 mg/kg i.v. vs vehicle; 28 days
# Description: On the day before TBI surgery (Day −1), rats were anesthetized with 3% isoflurane in a mixture of nitrous oxide and oxygen (2:1) for induction of anesthesia and then maintained at 1-3% isoflurane in a mixture of nitrous oxide and oxygen (2:1). The surgical site skin was shaved, and the rat was then placed in a stereotaxic frame. Buprenorphine SR, s.c, (0.9-1.2 mg/kg Zoopharm: Lot: BSR1-142111) and Cefazolin, i.p., (40-50 mg/kg; Hospira: Lot: 101D032) was given at this time. The skull was exposed through a midline incision. A parasagittal craniotomy (5 mm) using a trephine drill was performed at 1 mm posterior to bregma and 1 mm lateral to the midline (outer circumference). […]
# On the day of TBI surgery (Day 0), rats were re-anesthetized with 3% isoflurane in a mixture of nitrous oxide and oxygen (2:1), intubated, connected to a respirator and ventilated with 1-2% isoflurane in a mixture of nitrous oxide and oxygen (2:1). […] The amplitude of the resulting pressure pulse was measured in atmospheres by a pressure transducer. […]
# Dosing solutions were prepared in a blinded fashion with H, I, M, O and Z labels ready to use. […]
# All data were expressed as mean S.E.M. Behavioral data and weight were analyzed by repeated measures of ANOVA and/or ANCOVA. […]
smiles,measurement,setting,value
"CC(NC(=O)C(CCC(=O)O)NC(=O)CCCCC1CCSS1)C(=O)O [CMX-2043, N—(R)-lipoyl-glutamylalanine]",Protein carboxylation (ELISA),protein carboxylation,significant reduction in protein carboxylation
same,Body weight over time,[1],no significant differences
